Measured values published in paper PMC6023986, “Interactions Between Emodin and Efflux Transporters on Rat Enterocyte by a Validated Ussing Chamber Technique” (Frontiers in Pharmacology, 2018).
Like-named read-outs stand apart in the source and are kept apart here. Each block holds one compound with its values, some of them ahead of it.

Experiments:
[1] = molecular target: T1, MRP3 (Rattus norvegicus, UniProt O88563); assay: Ussing chamber bidirectional transport, model validation for MRP3 (teniposide substrate, benzbromarone inhibitor); format: in vitro ADME; conditions: jejunum and ileum, benzbromarone 470 μM, teniposide as substrate
T1 construct: intestinal segments including duodenum, jejunum, ileum, and colon from anesthetized rats were immediately removed by surgery; from tissue; host or cells: stripped rat intestine (jejunum and ileum in validation; jejunum for the emodin studies)
T1 sequence (O88563 whole entry): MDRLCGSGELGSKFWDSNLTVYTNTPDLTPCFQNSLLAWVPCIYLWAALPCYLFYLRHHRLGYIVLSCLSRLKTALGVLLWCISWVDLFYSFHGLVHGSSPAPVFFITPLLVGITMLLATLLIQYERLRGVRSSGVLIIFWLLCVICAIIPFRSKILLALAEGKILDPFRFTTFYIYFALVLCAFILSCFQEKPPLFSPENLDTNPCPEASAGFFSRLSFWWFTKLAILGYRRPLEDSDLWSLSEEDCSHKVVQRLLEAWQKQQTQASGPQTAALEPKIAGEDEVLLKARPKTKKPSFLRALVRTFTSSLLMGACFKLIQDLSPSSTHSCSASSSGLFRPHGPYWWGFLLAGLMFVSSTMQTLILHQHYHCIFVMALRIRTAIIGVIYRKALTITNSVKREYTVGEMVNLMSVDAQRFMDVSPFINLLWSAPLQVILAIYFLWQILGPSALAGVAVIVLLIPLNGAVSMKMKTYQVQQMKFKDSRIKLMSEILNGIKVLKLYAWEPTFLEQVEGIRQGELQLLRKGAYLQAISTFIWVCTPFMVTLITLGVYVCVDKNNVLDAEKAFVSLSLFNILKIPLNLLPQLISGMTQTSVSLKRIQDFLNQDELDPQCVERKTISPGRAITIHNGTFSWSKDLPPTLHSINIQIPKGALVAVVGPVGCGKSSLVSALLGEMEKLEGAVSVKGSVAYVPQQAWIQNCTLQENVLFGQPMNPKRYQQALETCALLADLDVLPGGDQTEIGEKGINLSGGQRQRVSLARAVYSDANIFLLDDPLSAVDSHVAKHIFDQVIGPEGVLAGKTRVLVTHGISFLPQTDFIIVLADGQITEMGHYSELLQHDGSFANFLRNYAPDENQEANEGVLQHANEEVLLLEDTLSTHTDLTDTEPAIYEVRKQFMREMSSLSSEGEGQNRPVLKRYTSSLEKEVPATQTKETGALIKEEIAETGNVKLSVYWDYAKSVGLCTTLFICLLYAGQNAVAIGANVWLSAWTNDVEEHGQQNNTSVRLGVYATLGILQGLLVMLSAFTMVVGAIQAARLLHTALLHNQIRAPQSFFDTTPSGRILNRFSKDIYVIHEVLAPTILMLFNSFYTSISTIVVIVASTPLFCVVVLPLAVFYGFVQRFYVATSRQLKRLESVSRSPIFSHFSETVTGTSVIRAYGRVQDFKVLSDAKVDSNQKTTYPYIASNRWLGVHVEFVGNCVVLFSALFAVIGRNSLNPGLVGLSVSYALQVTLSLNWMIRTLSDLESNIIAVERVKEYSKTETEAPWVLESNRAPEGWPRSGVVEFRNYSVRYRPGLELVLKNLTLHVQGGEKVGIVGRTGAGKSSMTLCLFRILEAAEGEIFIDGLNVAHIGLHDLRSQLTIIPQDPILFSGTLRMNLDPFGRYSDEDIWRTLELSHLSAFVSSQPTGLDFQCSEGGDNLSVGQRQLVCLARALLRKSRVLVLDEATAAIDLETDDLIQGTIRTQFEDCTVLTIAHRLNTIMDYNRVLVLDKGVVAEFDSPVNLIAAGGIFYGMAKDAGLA
Description: (§1) The four intestinal segments including duodenum, jejunum, ileum, and colon from anesthetized rats were immediately removed by surgery and washed with KRB solution. Each section of the intestinal segments was then placed in cold (on ice), bubbled (O2:CO2 95:5) KRB buffer. The four intestinal segments were then cut into 2 cm pieces, respectively, and serosas were removed by blunt dissection. Peyer’s patches were excluded from the experiment by visually identified. The stripped tissues were mounted in chambers with exposed surface area of 0.49 cm^2. Temperature of the chambers was maintained at 37 ± 0.5°C. Each of the half-cells in the chambers was filled with 5 mL fresh KRB buffer (pH 6.5). Tissue viability was continuously controlled by potential difference (PD). Tissue with electrical values less than 2 mV was refused ([Moazed and Hiebert, 2007]; [Heinen et al., 2013]).
(§2) Digoxin, pravastatin, and teniposide were employed as the test substrates of P-gp, MRP2, and MRP3. […] The experiments were started after 30 min equilibration time, by changing the KRB buffer on both sides; 5 mL KRB solution with different test compounds was filled in the mucosal or serosal compartment; meanwhile, equal volume fresh buffer was added to the other compartment. […] The bidirectional transport studies with specific inhibitors were assessed to validate this model whether or not suitable for P-gp, MRP2, and MRP3 studies. Samples were stored at –80°C until analysis ([Deusser et al., 2013]).
(§3) Frozen samples were adequately vortexed after thawing at the room temperature; 10 μL suitable IS solution was added to 200 μL samples; 200 μL methanol was added after a thorough vortex mixing for 30 s. The mixtures were then vortexed for 30 s and centrifuged at 15,000 rpm for 30 min. Finally, 5 μL of supernatant was injected into the LC-MS/MS system.
(§4) The quantifications of the compounds were performed by the TSQ Quantum Ultra Triple Quadrupole LC-MS/MS system from Thermo Fisher Scientific. Chromatography was carried out using an Agilent Poroshell 120 SB-C18 (2.7 μm, 2.1 mm × 100 mm) column with a Phenomenex AFO-8497 C18 pre-column, operating at 30°C. Adaptive gradient elution methods were applied for the analytes. The flow rate of the mobile phase was kept at 0.2 mL min^-1. Flow was directed to the ion spray interface. All measurements were carried out in negative ESI mode. Ion spray voltage was -2500 V. Vaporizer and capillary temperatures were set at 250 and 350°C, respectively. Auto sampler temperature was set at 10°C. Sheath gas and aux gas were set at 30 and 15 Arb, respectively. […] Peak integrations and calibrations were carried out using LC Quan 2.5.2 software from Thermo Fisher Scientific.
(§5) The Q (accumulative quantity), Papp (apparent permeability), Er (efflux ratio), Pr (Papp ratio), and Err (Er ratio) across the excited rat intestinal segments in the Ussing chamber were calculated using the following equations ([Li et al., 2012]; [Huang et al., 2016]): […]
(§6) where Cn (nM) is the concentration of the drug at the time point (n), Q (nM) is the accumulated absorption amount, A is the exposed surface area of the intestine (0.49 cm^2), dQ/dt (nM⋅s^-1) is the amount of the drug transported, and C0 (nM) is the initial concentration of the test drug. Experiments were performed in batches, so control groups were set as one for each batch.

[2] = tested on: P-gp; assay: in vitro; conditions: rat
Description: The quantifications of the compounds were performed by the TSQ Quantum Ultra Triple Quadrupole LC-MS/MS system from Thermo Fisher Scientific. […] Adaptive gradient elution methods were applied for the analytes. The flow rate of the mobile phase was kept at 0.2 mL min^-1. Flow was directed to the ion spray interface. All measurements were carried out in negative ESI mode. Ion spray voltage was -2500 V. Vaporizer and capillary temperatures were set at 250 and 350°C, respectively. Auto sampler temperature was set at 10°C. Sheath gas and aux gas were set at 30 and 15 Arb, respectively. […] Peak integrations and calibrations were carried out using LC Quan 2.5.2 software from Thermo Fisher Scientific.

[3] = tested on: P-gp; assay: Influence of emodin on P-gp function: digoxin bidirectional transport in the presence of emodin (Ussing chamber); format: in vitro ADME; conditions: rat jejunum; for Papp at 25 μM: rat
Description: as §1
In this study, the effects of the three efflux transporters on emodin intestinal absorption were investigated. Meanwhile, the influence of emodin on intestinal P-gp, MRP2, and MRP3 functions were also discussed. Solutions with three concentrations (low, middle, and high) of emodin were filled in the mucosal or serosal compartment to measure the bidirectional transport characteristic. […] In the emodin impact experiments, digoxin, pravastatin, and teniposide were employed as P-gp, MRP2, and MRP3 substrates. Changes of the bidirectional transport characteristic were measured before and after adding emodin to the mucosal side.
as §3, §4, §5, §6

[4] = molecular target: MRP2 (Rattus norvegicus, UniProt Q63120); assay: Ussing chamber bidirectional transport, model validation for MRP2 (pravastatin substrate, MK571 inhibitor); format: in vitro ADME; design: intestinal segments including duodenum, jejunum, ileum, and colon from anesthetized rats were immediately removed by surgery; from tissue; host or cells: stripped rat intestine (jejunum and ileum in validation; jejunum for the emodin studies); conditions: jejunum and ileum, MK571 186 μM, pravastatin as substrate
Chain of MRP2 (Q63120 whole entry, the tested form may be a part): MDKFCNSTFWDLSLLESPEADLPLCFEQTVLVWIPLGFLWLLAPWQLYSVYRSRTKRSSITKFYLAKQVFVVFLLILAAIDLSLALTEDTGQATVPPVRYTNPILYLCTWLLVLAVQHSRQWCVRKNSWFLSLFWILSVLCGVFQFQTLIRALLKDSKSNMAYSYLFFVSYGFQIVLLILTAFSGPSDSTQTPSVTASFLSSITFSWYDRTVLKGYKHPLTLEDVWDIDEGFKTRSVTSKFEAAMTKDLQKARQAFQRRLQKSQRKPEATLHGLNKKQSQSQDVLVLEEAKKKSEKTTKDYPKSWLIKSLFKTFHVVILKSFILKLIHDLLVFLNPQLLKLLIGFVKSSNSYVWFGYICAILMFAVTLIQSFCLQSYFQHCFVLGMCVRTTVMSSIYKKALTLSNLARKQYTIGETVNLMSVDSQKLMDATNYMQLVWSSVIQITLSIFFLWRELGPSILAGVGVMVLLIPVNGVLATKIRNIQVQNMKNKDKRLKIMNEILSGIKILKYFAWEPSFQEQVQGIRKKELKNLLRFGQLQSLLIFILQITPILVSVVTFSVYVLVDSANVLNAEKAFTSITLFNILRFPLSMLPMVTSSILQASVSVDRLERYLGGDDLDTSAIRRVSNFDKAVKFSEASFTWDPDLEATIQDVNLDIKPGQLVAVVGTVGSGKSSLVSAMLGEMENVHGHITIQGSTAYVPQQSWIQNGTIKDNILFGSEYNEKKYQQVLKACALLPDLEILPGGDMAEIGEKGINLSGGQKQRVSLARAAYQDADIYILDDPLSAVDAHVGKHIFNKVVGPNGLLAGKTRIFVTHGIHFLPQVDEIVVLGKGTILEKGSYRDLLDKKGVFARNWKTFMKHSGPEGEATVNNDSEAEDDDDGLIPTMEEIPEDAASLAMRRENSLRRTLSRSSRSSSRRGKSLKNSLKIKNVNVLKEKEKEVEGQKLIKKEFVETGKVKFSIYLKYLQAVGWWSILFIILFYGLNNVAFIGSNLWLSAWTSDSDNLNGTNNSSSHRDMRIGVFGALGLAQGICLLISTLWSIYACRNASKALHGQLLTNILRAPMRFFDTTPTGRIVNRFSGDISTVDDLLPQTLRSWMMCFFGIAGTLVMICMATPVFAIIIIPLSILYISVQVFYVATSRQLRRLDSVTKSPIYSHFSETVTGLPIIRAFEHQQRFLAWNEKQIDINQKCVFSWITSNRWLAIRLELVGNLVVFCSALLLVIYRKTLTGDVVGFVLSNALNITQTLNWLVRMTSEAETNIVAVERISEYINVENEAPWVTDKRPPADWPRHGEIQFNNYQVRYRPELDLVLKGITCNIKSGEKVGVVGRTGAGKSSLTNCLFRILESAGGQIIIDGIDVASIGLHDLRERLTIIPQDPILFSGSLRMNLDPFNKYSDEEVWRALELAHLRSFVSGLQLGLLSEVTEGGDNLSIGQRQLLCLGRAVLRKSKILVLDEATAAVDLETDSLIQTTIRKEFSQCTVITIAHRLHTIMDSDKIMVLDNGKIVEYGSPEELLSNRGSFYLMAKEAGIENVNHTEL
Description: as §1, with “(PD).” for “(PD). Tissue with electrical values less than 2 mV was refused ([Moazed and Hiebert, 2007]; [Heinen et al., 2013]).”
as §2, with “studies.” for “studies. Samples were stored at –80°C until analysis ([Deusser et al., 2013]).”
as §3
as §4, with “Chromatography was carried out using an Agilent Poroshell 120 SB-C18 (2.7 μm, 2.1 mm × 100 mm) column with a Phenomenex AFO-8497 C18 pre-column, operating at 30°C.” left out
as §6

- Inhibition effect on MRP3 [1]: significant inhibition effect
SMILES: CCc1oc2ccccc2c1C(=O)c1cc(Br)c(O)c(Br)c1 [Benzbromarone]

- Papp ([2]; pH 6.5, Papp M-S, control, rat colon, without inhibitor): 63.1 ± 33.1 ×10⁻⁶ cm/s
- Papp ([2]; pH 6.5, Papp M-S, control, rat duodenum, without inhibitor): 72.5 ± 32.8 ×10⁻⁶ cm/s
- Papp ([2]; pH 6.5, Papp M-S, control, rat ileum, without inhibitor): 43.1 ± 15 ×10⁻⁶ cm/s
- Papp ([2]; pH 6.5, Papp M-S, control, rat jejunum, without inhibitor): 57.8 ± 11.2 ×10⁻⁶ cm/s
- Papp ([2]; pH 6.5, Papp S-M, control, rat colon, without inhibitor): 137 ± 66.3 ×10⁻⁶ cm/s
- Papp ([2]; pH 6.5, Papp S-M, control, rat duodenum, without inhibitor): 186 ± 144 ×10⁻⁶ cm/s
- Papp ([2]; pH 6.5, Papp S-M, control, rat ileum, without inhibitor): 228 ± 136 ×10⁻⁶ cm/s
- Papp ([2]; pH 6.5, Papp S-M, control, rat jejunum, without inhibitor): 270 ± 125 ×10⁻⁶ cm/s
- Papp ([2]; pH 6.5, with verapamil 220 μM, mucosal side, Papp M-S, with inhibitor, rat duodenum, with verapamil 220 μM on mucosal side): 45.3 ± 23.2 ×10⁻⁶ cm/s
- Papp ([2]; pH 6.5, with verapamil 220 μM, mucosal side, Papp M-S, with inhibitor, rat ileum, with verapamil 220 μM on mucosal side): 191 ± 90.5 ×10⁻⁶ cm/s
- Papp ([2]; pH 6.5, with verapamil 220 μM, mucosal side, Papp M-S, with inhibitor, rat jejunum, with verapamil 220 μM on mucosal side): 119 ± 58.5 ×10⁻⁶ cm/s
- Papp ([2]; pH 6.5, with verapamil 220 μM, mucosal side, Papp S-M, with inhibitor, rat duodenum, with verapamil 220 μM on mucosal side): 79.7 ± 32.2 ×10⁻⁶ cm/s
- Papp ([2]; pH 6.5, with verapamil 220 μM, mucosal side, Papp S-M, with inhibitor, rat ileum, with verapamil 220 μM on mucosal side): 157 ± 108 ×10⁻⁶ cm/s
- Papp ([2]; pH 6.5, with verapamil 220 μM, mucosal side, Papp S-M, with inhibitor, rat jejunum, with verapamil 220 μM on mucosal side): 96.4 ± 86.4 ×10⁻⁶ cm/s
- Papp ([2]; pH 6.5, with verapamil 440 μM, mucosal side, Papp M-S, with inhibitor, rat colon, with verapamil 440 μM on mucosal side): 189 ± 34.3 ×10⁻⁶ cm/s
- Papp ([2]; pH 6.5, with verapamil 440 μM, mucosal side, Papp S-M, with inhibitor, rat colon, with verapamil 440 μM on mucosal side): 191 ± 40.1 ×10⁻⁶ cm/s
- Change of Er values of digoxin after adding emodin ([3]; digoxin 25 μM, emodin 185, 370, 740 μM): significant higher
- Papp at 25 μM ([3]; pH 6.5, digoxin 25 μM, without emodin, read-out: Papp M-S, control): 91.6 ± 41 ×10⁻⁶ cm/s
- Papp at 25 μM ([3]; pH 6.5, digoxin 25 μM, without emodin, read-out: Papp S-M, control): 152 ± 43.9 ×10⁻⁶ cm/s
- Papp at 25 μM ([3]; pH 6.5, with emodin 185 μM on mucosal side, digoxin 25 μM, emodin 185 μM on mucosal side, read-out: Papp M-S in the presence of emodin): 55.8 ± 29.8 ×10⁻⁶ cm/s
- Papp at 25 μM ([3]; pH 6.5, with emodin 185 μM on mucosal side, digoxin 25 μM, emodin 185 μM on mucosal side, read-out: Papp S-M in the presence of emodin): 257 ± 47.6 ×10⁻⁶ cm/s
- Papp at 25 μM ([3]; pH 6.5, with emodin 370 μM on mucosal side, digoxin 25 μM, emodin 370 μM on mucosal side, read-out: Papp M-S in the presence of emodin): 49 ± 12.8 ×10⁻⁶ cm/s
- Papp at 25 μM ([3]; pH 6.5, with emodin 370 μM on mucosal side, digoxin 25 μM, emodin 370 μM on mucosal side, read-out: Papp S-M in the presence of emodin): 461 ± 191 ×10⁻⁶ cm/s
- Papp at 25 μM ([3]; pH 6.5, with emodin 740 μM on mucosal side, digoxin 25 μM, emodin 740 μM on mucosal side, read-out: Papp M-S in the presence of emodin): 20.4 ± 7.6 ×10⁻⁶ cm/s
- Papp at 25 μM ([3]; pH 6.5, with emodin 740 μM on mucosal side, digoxin 25 μM, emodin 740 μM on mucosal side, read-out: Papp S-M in the presence of emodin): 142 ± 29.7 ×10⁻⁶ cm/s
SMILES: C[C@H]1O[C@@H](O[C@H]2[C@@H](O)C[C@H](O[C@H]3[C@@H](O)C[C@H](O[C@H]4CC[C@@]5(C)[C@H](CC[C@@H]6[C@@H]5C[C@@H](O)[C@]5(C)[C@@H](C7=CC(=O)OC7)CC[C@]65O)C4)O[C@@H]3C)O[C@@H]2C)C[C@H](O)[C@@H]1O [Digoxin]

- Inhibition effect on MRP2 [4]: significant inhibition effect
SMILES: CN(C)C(=O)CCSC(SCCC(=O)O)c1cccc(/C=C/c2ccc3ccc(Cl)cc3n2)c1 (stereo not drawn) [MK571]
